Series [1] relates to isolated guinea pig ileum. As to conditions: Kolokouris et al., Ann. Pharm. Fr. 1985; cited from earlier work.
Another series has as its system Male Guinea pigs. Put plainly: Primary in vivo bronchodilator assay for muscarinic antagonists (reversal of carbachol bronchoconstriction). On the set-up: species or system guinea pig. The following applies: Cavia porcellus, iv, cumulative dose causing 50% reversal of carbachol bronchoconstriction. As for the experimental part: PRIMARY IN VIVO BRONCHODILATOR ASSAY FOR MUSCARINIC ANTAGONISTS Male Guinea pigs were anesthetized by urethane. The trachea, carotid artery and jugular vein were cannulated. Animals were ventilated with room air at a constant rate and volume. Airway pressure was measured from a side port of the tracheal catheter, and blood pressure and heart rate were monitored as well. After a stable baseline period, an aerosol of carbachol was administered via an ultrasonic nebulizer. Once the bronchoconstrictor response plateaued, test compound was given in increasing i.v. doses to cause graded, cumulative reductions in airway pressure. If more than a 50% reversal of bronchoconstriction occurred, an ED50 value for bronchodilator potency was calculated using a probit analysis. The ED50 was defined as the cumulative i.v. dose that caused a 50% reversal of bronchoconstriction.

In series [2] the target is T1, muscarinic cholinergic receptors on intestinal (ileal-longitudinal) smooth muscle (Cavia porcellus, UniProt H0W1Z3).
T1 construct: The longitudinal muscle, with the myenteric plexus attached, is separated from the underlying circular muscle; from tissue; host or cells: guinea pig ileum, longitudinal smooth muscle with myenteric plexus
T1 sequence (H0W1Z3 1-590): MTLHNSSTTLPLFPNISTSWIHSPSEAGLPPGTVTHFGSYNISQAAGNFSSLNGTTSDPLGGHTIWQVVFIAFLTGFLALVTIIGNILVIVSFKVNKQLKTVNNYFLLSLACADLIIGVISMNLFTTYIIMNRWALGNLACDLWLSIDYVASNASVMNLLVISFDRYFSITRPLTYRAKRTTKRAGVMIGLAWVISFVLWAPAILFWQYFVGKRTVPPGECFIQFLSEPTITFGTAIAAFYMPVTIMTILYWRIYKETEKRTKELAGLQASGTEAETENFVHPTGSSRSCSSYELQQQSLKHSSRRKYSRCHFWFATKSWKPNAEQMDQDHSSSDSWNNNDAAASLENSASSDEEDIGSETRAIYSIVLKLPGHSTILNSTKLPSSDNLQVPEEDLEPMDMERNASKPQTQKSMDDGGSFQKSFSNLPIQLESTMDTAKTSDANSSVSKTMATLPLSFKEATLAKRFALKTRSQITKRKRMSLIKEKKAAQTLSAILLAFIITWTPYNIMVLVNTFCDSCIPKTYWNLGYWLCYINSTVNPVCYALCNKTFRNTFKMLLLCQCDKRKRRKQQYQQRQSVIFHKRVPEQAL
Put plainly: Antimuscarinic test: antagonism of carbachol contraction of isolated ileum (Muscarinic Antagonist Activity, Ileum). Also noted: species or system guinea pig. The following applies: carbachol agonist, 37° C.

The target in series [3] is T2, muscarinic cholinergic receptors on bladder detrusor muscle (Cavia porcellus, UniProt H0W1Z3).
T2 construct: The peritoneal cavity is opened and the bladder is held lightly at its apex; from tissue; host or cells: guinea pig urinary bladder, detrusor strips without mucosa
T2 sequence (H0W1Z3 1-590): as above
The experiment in a line: Antimuscarinic test: antagonism of carbachol contraction of isolated bladder (Muscarinic Antagonist Activity, Bladder). As to conditions: bladder detrusor strips, carbachol agonist, 35° C. On the set-up: species or system guinea pig. As for the experimental part: ANTIMUSCARINIC TEST PROTOCOL
PREPARATION OF BLADDER FOR TESTING
Male albino guinea pigs are killed by decapitation or cervical dislocation. The peritoneal cavity is opened and the bladder is held lightly at its apex, stretched gently, and fat is lifted with fine forceps and dissected away in situ with blunt-tipped scissors as close to the surface of the bladder as possible. The tissue is placed in a latex-bottomed Petri dish that contains a modified Krebs solution (133 mM NaCl, 1.3 mM […], 16.3 mM NaHCO3, 4.7 mM KCl, 0.6 mM MgSO4.7H2 O, 2.5 mM CaCl2.2H2 O, 7.7 mM dextrose) and cut above the neck. The bladder is collapsed into a flat pouch, which is opened by two lateral incisions and unfolded to give a rectangular sheet of tissue approximately 2 cm long and 1 cm wide. The sheet is gently stretched and pinned to the bottom of the Petri dish. Blunt separation of the mucosa, which is visible as a looser superficial pink layer, is started at one end by carefully inserting the blades of micro dissecting scissors between the mucosa and muscle layers and using gentle spreading of the blades, together with steady traction with forceps to tease the two layers apart. Clean removal of the mucosa is usually possible without any fraying or tearing of the underlying muscle. The removal of the mucosa is considered essential for improving oxygen supply to the preparation and for providing better access on both sides of the thin muscle sheet for administered drugs (Ambache and Zar, J. Physiol. 210:671, 1970). The sheet is trimmed, if necessary, and cut longitudinally into four strips.
The strips are tied off with 5-0 silk suture and are then suspended in 10 mL water-jacketed glass tissue baths containing the Krebs solution maintained at 35° C. and aerated with 95% O2 /5% CO2. The suture connects each tissue to an isometric force-displacement transducer (Grass or Gould) coupled to a physiograph. Each preparation is suspended under a resting tension of 0.5 g and allowed to equilibrate for 36 minutes. During this period, the baths are emptied and filled every 12 minutes with 10 mL of warm Krebs buffer. At the end of this period, each muscle strip is conditioned by adding 10 μM carbachol to the baths. The drug remains in contact with each tissue for 1-2 minutes and then is removed by four rapid rinses of 10 mL of warm Krebs buffer. The preparations are allowed to recover for an additional 12 minutes before being used in experiments.
Carbachol is dissolved in saline to produce 2×10^-2 M stock concentrations. Serial dilutions (1:10) in saline or water are made from the stock solution. Appropriate volumes of these solutions are added cumulatively to the 10 mL tissue baths in order to obtain the desired bath concentrations.
PREPARATION OF TEST COMPOUNDS
Compounds that are soluble in water or saline are dissolved in these solvents to produce 2×10^-2 or 2×10^-3 M stock concentrations. Small amounts of IN HCl, NaOH, or 95% ethanol may be added for those agents that are not soluble in water or saline alone. Serial dilutions (1:10) in saline or water are made from the stock solution. Compounds that are insoluble in aqueous solvents are dissolved in dimethylsulfoxide (DMSO) to produce 4×10^-2 M stock solutions. Serial dilutions (1:10) in water are made from the stock solution. Other solvents may be used when appropriate and will be specifically described in the experimental procedure. Appropriate volumes are then added to the baths in order to obtain the desired bath concentrations.
Appropriate volumes of carbachol solutions are cumulatively added to the 10 mL tissue baths to increase the concentration of carbachol in the bath step-by-step without washing out after each single dose. With each concentration step, the tissue contracts isometrically. The next concentration is added only after the preceding contraction has reached a steady value. […]

Another series in a line: Solubility. Type of series: physicochemical.
The subject of the next series is mammalian heart tissue. As to conditions: Pohland, S. African Patent 68 05,631; cited from earlier work.

Structures are written as SMILES. Where a name gives a salt, the structure may show the parent alone.

As to `CN(C)CC1CC(c2ccccc2)(c2ccccc2)OC1=O` (stereo not shown) [3-[(dimethylamino)methyl]-4,5-dihydro-5,5-diphenyl-2(3H)furanone], in series [1], the “prevents contractions of isolated guinea pig ileum (spasmolytic)” value is “prevents contractions of isolated guinea pig ileum”.
Consider `CCc1n(CC2CC(c3ccccc3)(c3ccccc3)C(=O)O2)cc[n+]1C` (stereo not shown) [5-[1-(2-Ethyl-3-methylimidazol)methyl]-4,5-dihydro-3,3-diphenyl-2(3H)furanone bromide], for which the ED50 – broadly, the midpoint of the dose-response relation – in the series on Male Guinea pigs was 0.13 mg/kg. Also, the antagonist equilibrium constant (Kb) (usually the equilibrium dissociation constant of an antagonist, usually derived from a functional assay) in series [2] was found to be 8 nM; in series [3] it was 5 nM.
The corresponding values for `CCc1nccn1CC1CC(c2ccccc2)(c2ccccc2)C(=O)O1` (stereo not shown) [5-[1-(2-Ethylimidazol)methyl]-4,5-dihydro-3,3-diphenyl-2(3H)furanone hydrochloride] are 4 mg/kg, 68 nM and 86 nM.
`CC(C)c1n(CC2CC(c3ccccc3)(c3ccccc3)C(=O)O2)cc[n+]1C` (stereo not shown) [5-[1-(2-Isopropyl-3-methylimidazol)methyl]-4,5-dihydro-3,3-diphenyl-2(3H)furanone iodide]: the Kb worked out at 4 nM in series [2] and 2.4 nM in series [3].
In the same order, the values of `CC(C)c1n(CC2CC(c3ccccc3)(c3ccccc3)C(=O)O2)cc[n+]1C` (stereo not shown) [5-[1-(2-Isopropyl-3-methylimidazol-methyl]-4,5-dihydro-3,3-diphenyl-2(3H)furanone bromide] are 2.9 nM and 0.7 nM.
`CC(C)c1nccn1CC1=CC(c2ccccc2)(c2ccccc2)C(=O)O1` [5-[1-(2-Isopropylimidazol)methyl]-3,3-diphenyl-2(3H)furanone hydrochloride hydrate] had an antagonist equilibrium constant (Kb) in series [2] of 31 nM. Besides, in the series “Solubility” (in 0.5N HCl and 1 drop of Tween 80), the solubility – broadly, the concentration that dissolves in the medium under given conditions – was over 1000 µg/mL.
`CC(C)c1nccn1CC1CC(c2ccccc2)(c2ccccc2)C(=O)O1` (stereo not shown) [5-[1-(2-Isopropylimidazol)methyl]-4,5-dihydro-3,3-diphenyl-2(3H)furanone hydrochloride]: the median effective dose (ED50) in the series with Male Guinea pigs was 0.83 mg/kg. Moreover, the Kb in series [2] stood at 30 nM; in series [3], 33 nM.
In the same order, the values of `Cc1nccn1CC1CC(c2ccccc2)(c2ccccc2)C(=O)O1` (stereo not shown) [5-[1-(2-Methylimidazol)methyl]-4,5-dihydro-3,3-diphenyl-2(3H)furanone] are 5.5 mg/kg, 107 nM and 238 nM.
On to `CCCc1nccn1CC1CC(c2ccccc2)(c2ccccc2)C(=O)O1` (stereo not shown) [5-[1-(2-n-Propylimidazol)methyl]-4,5-dihydro-3,3-diphenyl-2(3H)furanone hydrochloride], for which, in the series on Male Guinea pigs, the median effective dose (ED50) stood at 1.3 mg/kg. Moreover, the antagonist dissociation constant (Kb) in series [2] worked out at 21 nM; in series [3], 70 nM.
Turning to `CCCc1n(CC2CC(c3ccccc3)(c3ccccc3)C(=O)O2)cc[n+]1C` (stereo not shown) [5-[1-(3-Methyl-2-n-propylimidazol-methyl]-4,5-dihydro-3,3-diphenyl-2(3H)furanone iodide], the 50% effective dose (ED50) in the series on Male Guinea pigs amounted to 0.11 mg/kg. Besides, the figures for the Kb in series [2] and in series [3] were 23 nM and 11 nM, respectively.
As for `C[n+]1ccn(CC2CC(c3ccccc3)(c3ccccc3)C(=O)O2)c1` (stereo not shown) [5-[1-(3-Methylimidazol)methyl]-4,5-dihydro-3,3-diphenyl-2(3H)furanone bromide hydrate], in the series with Male Guinea pigs, the 50% effective dose (ED50) was found to be 1 mg/kg. The values for the Kb in series [2] and in series [3] were 322 nM and 151 nM, respectively.
`O=C1OC(Cn2cnc(-c3ccccc3)c2)CC1(c1ccccc1)c1ccccc1` (stereo not shown) [5-[1-(4-Phenylimidazol)methyl]-4,5-dihydro-3,3-diphenyl-2(3H)furanone hydrochloride hydrate] showed a Kb in series [2] of 140 nM. The “Insol. (printed in the bronchodilator ED50 column)” value in the series “Solubility” (bronchodilator test, i.v.) was “Insol”.
As for `CCOCc1n(C)cc[n+]1CC1CC(c2ccccc2)(c2ccccc2)C(=O)O1` (stereo not shown) [5-[1-(Ethoxymethyl-3-methylimidazol)methyl]-4,5-dihydro-3,3-diphenyl-2(3H)furanone iodide], in the series on Male Guinea pigs, the ED50 was over 10 mg/kg. Also, the Kb came to 253 nM in series [2] and 339 nM in series [3].
For the molecule `CCN(CC)CC1CC(c2ccccc2)(c2ccccc2)C(=O)O1` (stereo not shown) [5-[(Diethylamino)-methyl]-4,5-dihydro-3,3-diphenyl-2(3H)furanone], the “antiarrhythmic effectiveness in mammalian heart tissue” value in the series with mammalian heart tissue is “antiarrhythmic effectiveness in mammalian heart tissue”.
Take `CCc1nccn1C[C@H]1CC(c2ccccc2)(c2ccccc2)C(=O)O1` [(R)-(+)-5-[1-(2-Ethylimidazol)methyl]-4,5-dihydro-3,3-diphenyl-2(3H)furanone hydrochloride]: the Kb was determined as 21 nM in series [2] and 129 nM in series [3].
On to `CC(C)c1nccn1C[C@H]1CC(c2ccccc2)(c2ccccc2)C(=O)O1` [(R)-(+)-5-[1-(2-Isopropylimidazol)methyl]-4,5-dihydro-3,3-diphenyl-2(3H)furanone hydrochloride], for which the figures for the Kb in series [2] and in series [3] were 10 nM and 15 nM, respectively.
For `CCc1nccn1C[C@@H]1CC(c2ccccc2)(c2ccccc2)C(=O)O1` [(S)-(-)-5-[1-(2-Ethylimidazol)methyl]-4,5-dihydro-3,3-diphenyl-2(3H)furanone hydrochloride], the results for the Kb in series [2] and in series [3] were 169 nM and 350 nM, respectively.

These data come from patent US5039691A, “5-(1-(imidazol)methyl)-3,3-disubstituted-2(3H)furanone derivatives” (Marion Merrell Dow Inc., priority 1990, dated 1991).
